The values below come from paper PMC7044277 (Nature Communications, 2020).

What all share (assay type): cell-based
For assay [1], the target named is 320 non-olfactory GPCRs (Homo sapiens, UniProt P41146). The conditions noted are these: receptor OPRL1; replicate values, Fig_4g.
The target in assay [2] is T1, 320 non-olfactory GPCRs (Homo sapiens, UniProt P41968).
T1 construct: expressed in transfected cells; host or cells: HTLA cells
To be noted: receptor MC3Rb; replicate values, Fig_4g.

The target in assay [3] is T2, 320 non-olfactory GPCRs (Homo sapiens, UniProt P33032).
T2 construct: expressed in transfected cells; host or cells: HTLA cells
To be noted: receptor MC5R; replicate values, Fig_4g.

The target of assay [4] is T3, 320 non-olfactory GPCRs (Homo sapiens, UniProt P35348).
T3 construct: expressed in transfected cells; host or cells: HTLA cells

“And” between values parts separate entries of the source, which are not always exact repeats. Identical values can stand only once.
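Throughout, for Fold of Basal: compound tested at 1 µM final concentration.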
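Throughout, for GPCRome agonism screen response: fold over basal response of each receptor without drug.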

T3 sequence (P35348 whole entry): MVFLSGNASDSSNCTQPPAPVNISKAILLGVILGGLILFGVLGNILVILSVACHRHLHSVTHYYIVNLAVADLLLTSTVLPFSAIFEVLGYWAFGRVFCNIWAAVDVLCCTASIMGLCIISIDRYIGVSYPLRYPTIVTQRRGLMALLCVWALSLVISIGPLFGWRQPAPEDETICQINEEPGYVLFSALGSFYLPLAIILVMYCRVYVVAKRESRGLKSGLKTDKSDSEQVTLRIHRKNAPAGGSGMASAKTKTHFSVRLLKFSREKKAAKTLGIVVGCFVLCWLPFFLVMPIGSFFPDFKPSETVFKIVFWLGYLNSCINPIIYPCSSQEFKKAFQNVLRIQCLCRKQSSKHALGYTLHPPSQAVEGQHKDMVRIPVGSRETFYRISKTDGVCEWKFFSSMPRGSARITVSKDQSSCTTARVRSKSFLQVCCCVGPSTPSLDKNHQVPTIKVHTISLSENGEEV
320 non-olfactory GPCRs (Homo sapiens, UniProt P41146), sequence (P41146 whole entry): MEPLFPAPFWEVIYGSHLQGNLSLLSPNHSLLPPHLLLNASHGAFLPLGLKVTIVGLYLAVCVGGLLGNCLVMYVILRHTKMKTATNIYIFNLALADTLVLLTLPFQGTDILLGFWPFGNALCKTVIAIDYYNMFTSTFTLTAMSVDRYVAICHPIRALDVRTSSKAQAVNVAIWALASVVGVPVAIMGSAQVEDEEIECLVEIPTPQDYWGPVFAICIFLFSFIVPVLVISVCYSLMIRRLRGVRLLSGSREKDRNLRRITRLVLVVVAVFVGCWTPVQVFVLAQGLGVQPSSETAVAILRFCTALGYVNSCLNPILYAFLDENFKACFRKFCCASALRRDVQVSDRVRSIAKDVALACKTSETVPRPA
T2 sequence (P33032 whole entry): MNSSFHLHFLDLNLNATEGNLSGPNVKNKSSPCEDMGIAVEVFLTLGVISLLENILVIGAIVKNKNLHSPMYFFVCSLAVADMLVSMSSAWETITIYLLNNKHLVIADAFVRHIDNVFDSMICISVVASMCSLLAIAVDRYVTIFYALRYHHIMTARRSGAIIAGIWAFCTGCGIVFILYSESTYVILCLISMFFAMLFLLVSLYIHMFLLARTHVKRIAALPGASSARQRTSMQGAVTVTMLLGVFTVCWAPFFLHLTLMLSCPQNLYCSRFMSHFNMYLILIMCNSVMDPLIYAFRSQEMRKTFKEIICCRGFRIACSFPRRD
T1 sequence (P41968 whole entry): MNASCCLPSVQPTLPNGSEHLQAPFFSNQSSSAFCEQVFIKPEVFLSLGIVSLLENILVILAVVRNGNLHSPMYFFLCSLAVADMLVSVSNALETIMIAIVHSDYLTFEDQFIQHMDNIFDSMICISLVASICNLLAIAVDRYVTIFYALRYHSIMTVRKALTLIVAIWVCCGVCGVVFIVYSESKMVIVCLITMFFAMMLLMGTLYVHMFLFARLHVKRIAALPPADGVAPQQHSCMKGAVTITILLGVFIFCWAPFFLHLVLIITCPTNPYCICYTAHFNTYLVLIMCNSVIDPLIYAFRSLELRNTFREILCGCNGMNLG

For `CCOc1cccc2cc(C(C)NCC3(O)CCCCC3)oc12` (stereo not shown) [O4LE6], the “GPCRome agonism screen response” value in assay [1] was 0.6174 and 0.5517 and 0.7699 and 0.8115; in assay [2] it was 1.102 and 1.23 and 1.725 and 1.228; in assay [3] it was 1.253 and 1.116 and 1.497 and 1.062. The “Fold of Basal” value in assay [4] was 1.536 and 0.8942 and 1.241 and 1.268.
